“And” between values parts separate entries of the source, which are not always exact repeats. Equal entries are not always repeated.

Data on two compounds can be found in paper PMC11289669, “BAR502/fibrate conjugates: synthesis, biological evaluation and metabolic profile” (Frontiers in Chemistry, 2024).

Test [1] addresses T1, FXR (Homo sapiens, UniProt Q96RI1).
T1 sequence (Q96RI1 262-486 limits assumed): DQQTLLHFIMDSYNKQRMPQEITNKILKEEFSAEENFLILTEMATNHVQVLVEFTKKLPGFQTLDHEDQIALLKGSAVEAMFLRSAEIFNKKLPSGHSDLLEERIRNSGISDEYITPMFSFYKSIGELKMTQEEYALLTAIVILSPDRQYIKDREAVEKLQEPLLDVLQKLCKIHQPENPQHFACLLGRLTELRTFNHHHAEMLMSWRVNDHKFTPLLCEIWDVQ
The test is described as follows: AlphaScreen coactivator (SRC-1) recruitment assay on FXR. It is filed as biochemical. The conditions noted are these: for FXR efficacy (% vs. CDCA): AlphaScreen SRC-1 recruitment, compounds at 10 μM, CDCA = 100%; for EC50: AlphaScreen coactivator recruitment, FXR with SRC-1. Here is the method:
Compounds’ ability to mediate cofactor recruitment was evaluated by employing AlphaScreen GST Detection Kit (PerkinElmer). Particularly, FXR agonism was evaluated employing 10 nM FXR-LBD GST-fused (Thermo Scientific) and 30 nM of biotinylated SRC1 peptide ([…]) in the presence of 20 μg/mL donor and acceptor beads and in buffer containing 50 mM Tris-HCl (pH7.4), 20 mM KCl, 1 mM DTT, and 0.1% BSA. For PPARα assay, a buffer containing 50 mM MOPS, 50 mM NaF, 0.05 mM CHAPS, and 0.05% BSA (pH = 7.4) was used, and 20 nM PPARα LBD GST fused (Thermo Scientific) and 60 nM of biotinylated SRC1 peptide were employed. Both acceptor and donor beads were added to reach 20 μg/mL final concentration. Incubations were performed in a final volume of 25 μL employing 384 wells Optiplate and Alpha signal was measured with Envision 2,105 (Perkin Elmer) multimode plate reader. For efficacy, compounds were tested at 10 μM for FXR and 50 μM for PPARα.

Test [2] has as its target T2, GPBAR1 (Homo sapiens, UniProt Q8TDU6).
T2 construct: expressed in transfected cells; host or cells: HEK-293T
T2 sequence (Q8TDU6 1-330): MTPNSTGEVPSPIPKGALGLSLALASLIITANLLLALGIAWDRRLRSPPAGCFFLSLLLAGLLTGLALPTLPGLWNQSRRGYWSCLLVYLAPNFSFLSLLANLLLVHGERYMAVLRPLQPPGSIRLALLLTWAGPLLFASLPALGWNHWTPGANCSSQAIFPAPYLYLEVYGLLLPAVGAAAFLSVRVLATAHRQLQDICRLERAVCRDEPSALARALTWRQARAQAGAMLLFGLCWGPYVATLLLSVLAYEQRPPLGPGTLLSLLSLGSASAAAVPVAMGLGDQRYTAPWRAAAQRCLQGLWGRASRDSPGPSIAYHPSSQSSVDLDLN
The test is described as follows: GPBAR1 transactivation (CRE-luciferase reporter) assay in HEK-293T cells. The format is cell-based. The conditions noted are these: for Emax: 18 h, read-out: GPBAR1 efficacy (% vs. TLCA); for EC50: transactivation assay, HEK-293T cells. Here is the method: HepG2 and HEK-293T cells were cultured at 37 °C in minimal essential medium (MEM) and Dulbecco’s Modified Eagle Medium (DMEM) respectively, supplemented with 10% fetal bovine serum, 1% L-glutamine, 100 U/mL penicillin, and 100 μg/mL streptomycin. To investigate FXR-mediated transactivation, the HepG2 cells were transfected with 200 ng of the reporter vector p (hsp27)TK-Luc containing the FXR response element IR1 cloned from the promoter of heat shock protein 27 (hsp27), plus 100 ng pSG5-FXR, 100 ng pSG5-RXR, and 100 ng pGL4.70 Renilla. To evaluate GPBAR1 mediated transactivation, HEK-293T cells were transfected with 200 ng of human pGL4.29 (Promega), a reporter vector containing a cAMP response element (CRE) that drives the transcription of the luciferase reporter gene luc2P, with 100 ng of pCMVSPORT6-human GPBAR1, and with 100 ng of pGL4.70. At 24 h post-transfection, cells were stimulated 18 h with 10 μM TLCA (taurolithocholic acid a GPBAR1 agonist) or CDCA (FXR agonist) and compounds. To calculate the EC50 on FXR and GPBAR1, dose-response curves were performed in HEK-293T cells transfected as described above and then treated with increasing concentrations of compounds (from 0.1 to 50 µM). After treatments, cells were lysed in 100 μL of lysis buffer (25 mM Tris-phosphate, pH 7.8; 2 mM DTT; 10% glycerol; 1% Triton X-100), and 10 μL of cellular lysate was assayed for luciferase activity using the Firfly &Renilla Luciferase assay kit (Biotium). Luminescence was measured using Glomax 20/20 luminometer (Promega). Luciferase activities were assayed and normalized with Renilla activities.

Test [3] has as its system U937 cells. The experiment in a line: Pro-inflammatory gene expression (qRT-PCR) in LPS-activated U937 cells. The format is cell-based, human. The conditions noted are these: LPS 100 ng/mL, 18 h, compound 1 10 μM; for IL-1β mRNA expression / IL-6 mRNA expression: BAR502 and clofibrate 5 and 10 μM. Here is the method: U937 cell line were cultured in RPMI 1640 supplemented with 10% FBS, 1% glutamine, and 1% penicillin/streptomycin and were regularly passaged to maintain exponential growth. After 24 h of starvation cells were classically activated with LPS (100 ng/mL; Sigma-Aldrich, St. Louis, MO), and exposed or not to BAR502, clofibrate and compound 1 at the concentration of 5 and 10 μM for 18 h. At the end of the experiment the cells were recovered. Total mRNA extraction from U937 and 3T3.L1 was performed using Tri-Reagent (Zymo Research) and Direct-zolTM RNA MiniPrep w/Zymo-SpinTM IIC Columns (Zymo Research, Irvine, CA). After purification from genomic DNA using DNase I (Thermo Fisher Scientific, Waltham, MA), 1 μg of RNA from each sample was reverse transcribed using Kit […] Basic (Nippon Genetics, […] 20-μL of reaction volume; 50 ng of cDNA was amplified in a 20-μL solution containing 200 nM each primer and 10 μL of PowerUpTM SYBRTM Green Master Mix (Thermo Fisher Scientific, Waltham, MA). All reactions were performed in triplicate using the following thermal cycling conditions: 3 min at 95°C, followed by 40 cycles of 95°C for 15 s, 56°C for 20 s, and 72°C for 30 s, using a QuantStudio 3 system (Applied Biosystems, Foster City, CA). The relative mRNA expression was calculated accordingly to the ΔCt method. Primers were designed using the software PRIMER3 (http://frodo.wi.mit.edu/primer3/) using published data obtained from the NCBI database. The primer used were as following (forward and reverse): hGAPDH (for […]-1β (for [NT], hIL6 (for [NT] hCXCL2 (for [NT] hTNFα; (for [NT], mAdiponectin (for […]ɤ (for [NT], mCebp (for [NT]

Where [4] appears, read: transactivation on HEK-293T cells, TLCA 10 μM = 100%.

Turning to `CC[C@H]1[C@@H](O)[C@@H]2[C@H](CC[C@]3(C)[C@@H]([C@H](C)CCO)CC[C@@H]23)[C@@]2(C)CC[C@@H](O)C[C@@H]12` [BAR502, 6α-ethyl-3α,7α-dihydroxy-24-nor-5β-cholan-23-ol], in test [1], the “FXR efficacy (% vs. CDCA)” value amounted to 153.0 ± 3.1% and the EC50 worked out at 690 ± 150 nM. In test [2] (setting [4]), the Emax is 79.5 ± 11.8%. Moreover, a half-maximal response in test [2] (EC50) required 400 ± 100 nM. Also, in test [3], the “IL-1β mRNA expression” value is “reducing the expression of pro-inflammatory cytokines” and the “IL-6 mRNA expression” value is “reducing the expression of pro-inflammatory cytokines”.

Take `CC[C@@H]1C2C[C@H](O)CC[C@]2(C)C2CC[C@@]3(C)C(CC[C@@H]3[C@H](C)CCOC(=O)C(C)(C)Oc3ccc(Cl)cc3)C2[C@@H]1O` (some centres unmarked) [Compound 1]: in test [1], the “FXR efficacy (% vs. CDCA)” value is 79% and 79.0 ± 3.8%; it took 3400 ± 1200 nM to reach a half-maximal effect (EC50). Besides, in test [2] (setting [4]), the Emax worked out at 145% and the “GPBAR1 efficacy (% vs. TLCA)” value worked out at 145 ± 10%. The midpoint of the response in test [2], the EC50, lay at 370 ± 20 nM. In addition, in test [3], the “IL-1β mRNA expression” value is “greatest efficacy in reducing the expression”, the “IL-6 mRNA expression” value was “greatest efficacy in reducing the expression” and the “CXCL2 mRNA expression” value is “the only compound also reducing the expression”.
